Results: PMC3971757 (Journal of Natural Products, 2013)

Columns and labels:
[1] = target: NA of influenza virus A PR/8/34 (Influenza A virus, UniProt P03468); assay: biochemical; design: species or system influenza A virus H1N1 (A/PR/8/34); conditions: 50% NA inhibitory concentration against influenza virus A PR/8/34
[2] = target: NA of influenza virus A HK/68 (Influenza A virus, UniProt Q91MA2); assay: biochemical; design: species or system influenza A virus H3N2 (A/HongKong/68)
[3] = system: NA of influenza virus A/PR/8/34 (H1N1); conditions: FL-based NA inhibition assay; cited from earlier work
[4] = system: NA of influenza virus B/Jiangsu/10/2003; conditions: FL-based NA inhibition assay; cited from earlier work
[5] = system: NA of influenza virus A/Jinan/15/90 (H3N2); conditions: FL-based NA inhibition assay; cited from earlier work
[6] = system: NA of PR/8/34; conditions: read-out: IC50 NA inhibition (PR/8/34); earlier study; cited from earlier work

Sequence of NA of influenza virus A HK/68 (Q91MA2 whole entry, looked up): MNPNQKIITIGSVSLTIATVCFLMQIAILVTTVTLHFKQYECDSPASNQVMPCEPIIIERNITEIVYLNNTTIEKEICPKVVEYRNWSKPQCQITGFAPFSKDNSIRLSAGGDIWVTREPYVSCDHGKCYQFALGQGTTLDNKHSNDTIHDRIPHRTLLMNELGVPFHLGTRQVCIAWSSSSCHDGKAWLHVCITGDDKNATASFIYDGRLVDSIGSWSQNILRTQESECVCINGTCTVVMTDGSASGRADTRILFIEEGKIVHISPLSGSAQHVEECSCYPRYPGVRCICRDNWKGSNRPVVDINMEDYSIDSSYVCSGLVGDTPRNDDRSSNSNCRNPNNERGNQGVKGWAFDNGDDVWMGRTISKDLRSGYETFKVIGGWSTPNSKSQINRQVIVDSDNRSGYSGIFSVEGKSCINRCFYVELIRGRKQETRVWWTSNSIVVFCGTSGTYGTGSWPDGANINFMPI
Sequence of NA of influenza virus A PR/8/34 (P03468 whole entry, looked up): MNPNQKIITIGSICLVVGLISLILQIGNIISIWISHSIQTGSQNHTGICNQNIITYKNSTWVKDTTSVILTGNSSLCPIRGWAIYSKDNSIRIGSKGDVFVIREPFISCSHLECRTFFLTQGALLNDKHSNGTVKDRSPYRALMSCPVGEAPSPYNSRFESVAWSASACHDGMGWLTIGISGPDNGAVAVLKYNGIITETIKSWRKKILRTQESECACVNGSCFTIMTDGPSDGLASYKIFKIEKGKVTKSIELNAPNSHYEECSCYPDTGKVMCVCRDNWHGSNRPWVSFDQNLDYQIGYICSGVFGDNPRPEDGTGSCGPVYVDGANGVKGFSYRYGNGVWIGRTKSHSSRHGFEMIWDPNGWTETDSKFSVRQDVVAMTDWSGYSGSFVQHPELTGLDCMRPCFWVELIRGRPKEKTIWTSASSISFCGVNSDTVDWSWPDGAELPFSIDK

CC(C)=CCc1c(O)ccc(C(=O)/C=C/c2cc(O)c3c(c2)C=CC(C)(C)O3)c1O [Compound 1, (E)-1-[2,4-dihydroxy-3-(3-methyl-2-butenyl)phenyl]-3-(8-hydroxy-2,2-dimethyl-2H-1-benzopyran-6-yl)-2-propen-1-one]
IC50 [1]: 250 nM

CC1(C)C=Cc2c(ccc3c2OCC(O)C3)O1 (stereo not drawn) [Compound 2, 3,4-dihydro-8,8-dimethyl-2H,8H-benzo[1,2-b:3,4-b′]dipyran-3-ol]
IC50 [2]: 12400 ± 4140 nM | IC50 [1]: 6470 ± 2590 nM

COc1ccc(-c2coc3cc(O)ccc3c2=O)cc1 [Compound 3, biochanin B]
activity against the NA of influenza virus A/PR/8/34 (H1N1) [3]: weak activity | IC50 [1]: 1370 ± 220 nM | activity against the NA of influenza virus B/Jiangsu/10/2003 [4]: weak activity | activity against the NA of influenza virus A/Jinan/15/90 (H3N2) [5]: weak activity

CC(C)=CCc1cc([C@@H]2CC(=O)c3ccc(O)c(CC=C(C)C)c3O2)ccc1O [Compound 4, glabrol]
IC50 [2]: 3060 ± 1210 nM | IC50 [1]: 510 nM

CC1(C)C=Cc2c(ccc(-c3coc4cc(O)ccc4c3=O)c2O)O1 [Compound 5, glabrone]
IC50 [2]: 5340 ± 2290 nM | IC50 [1]: 400 ± 170 nM

CC1(C)C=Cc2c(ccc([C@@H]3COc4c(ccc5c4C=CC(C)(C)O5)C3)c2O)O1 [Compound 6, hispaglabridin B]
IC50 [2]: 2850 ± 1580 nM | IC50 [1]: 1110 ± 530 nM

O=C1C[C@@H](c2ccc(O)cc2)Oc2cc(O)ccc21 [Compound 10, liquiritigenin]
IC50 [1]: 2070 ± 370 nM

O=C1C[C@@H](c2ccc(O[C@@H]3O[C@H](CO)[C@@H](O)[C@H](O)[C@H]3O)cc2)Oc2cc(O)ccc21 [Compound 11, liquiritin]
activity against the NA of influenza virus A/PR/8/34 (H1N1) [3]: weak activity | IC50 [1]: 83100 ± 17800 nM | activity against the NA of influenza virus B/Jiangsu/10/2003 [4]: weak activity | activity against the NA of influenza virus A/Jinan/15/90 (H3N2) [5]: weak activity

O=C1C[C@@H](c2ccc(O)cc2)Oc2cc(O[C@@H]3O[C@H](CO)[C@@H](O)[C@H](O)[C@H]3O)cc(O)c21 [Compound 12, prunin]
IC50 [1]: 3000 ± 460 nM

C=CCc1ccc(O)c(-c2ccc(O)c(CC=C)c2)c1 [Honokiol, honokiol, reference compound]
IC50 [1]: 3010 nM

O=C(CCc1ccccc1)C[C@@H]1C[C@@H](c2ccccc2)c2c(cc(/C=C/c3ccccc3)oc2=O)O1 [Katsumadain A, katsumadain A]
IC50 [6]: 1050 nM
